In patent US20050004167A1, “Branched chain amino acid-dependent aminotransferase inhibitors and their use in the treatment of neurodegenerative diseases” (WARNER-LAMBERT COMPANY LLC, priority 2001, published 2005):
pIC50: −log10 of the molar value. Where “and” joins values, the source holds several entries; their conditions need not be identical. Identical values can stand only once.

How the values were obtained:
rat BCAT cytosolic form = target: T1, rat BCAT cytosolic form (Rattus norvegicus, UniProt P54690); assay: In vitro coupled enzyme assay (glutamate dehydrogenase, NADH formation), rat BCATc; format: biochemical; conditions: recombinant rat BCATc, 37° C., 25 mM phosphate buffer pH 7.8; several values in a cell = repeat determinations; read-out: RrBCATc
T1 construct: made in house; host or cells: E. coli BL21(DE3)
T1 sequence (P54690 1-411): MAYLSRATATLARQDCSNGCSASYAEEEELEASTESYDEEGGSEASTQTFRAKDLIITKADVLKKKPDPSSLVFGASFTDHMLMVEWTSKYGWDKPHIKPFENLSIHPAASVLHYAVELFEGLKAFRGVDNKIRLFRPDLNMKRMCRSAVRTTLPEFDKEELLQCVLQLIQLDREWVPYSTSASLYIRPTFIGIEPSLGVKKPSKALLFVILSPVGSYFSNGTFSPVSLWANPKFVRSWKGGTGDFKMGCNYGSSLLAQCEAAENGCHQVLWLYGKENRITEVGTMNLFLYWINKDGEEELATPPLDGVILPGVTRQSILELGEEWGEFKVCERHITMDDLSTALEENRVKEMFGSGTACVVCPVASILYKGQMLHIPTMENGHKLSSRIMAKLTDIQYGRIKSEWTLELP
Procedure: (§1) In vitro enzyme assay—human Branched Chain Amino Acid Aminotransferase cytosolic form (hBCATc) and mitochondrial form (hBCATm) as well as rat BCAT cytosolic form were assayed at 37° C. in 25 mM phosphate buffer pH 7.8. In addition, 2 mM DTT and 12.5 mM […] were added to the assay mixture. A coupling enzyme assay was used to monitor the production of glutamate. The formation of NADH from NAD+ at […] was followed on a 96-well plate Molecular Devices plate reader.
(§2) The following components were used in this coupled assay: 4 mM ADP, 1 mM NAD+, 750 μM L-Leucine, 500 μM α-ketoglutarate, 10 μM pyridoxal phosphate, 1 unit glutamate dehydrogenase, and 1.25 μg of the appropriate BCAT enzyme. Inhibitions by compounds were assayed by adding various concentrations to this coupled assay procedure as a DMSO stock up to a 5% v/v DMSO/buffer ratio.
(§3) Enzyme Preparation—humanBCATc and ratBCATc were expressed in BL21(DE3) cells. A growing culture of cells was induced with 1 mM IPTG at room temperature overnight. These cells were harvested by centrifugation at 10,000 g for 20 minutes. The supernatant was discarded, and the cells were stored at −80° C. until needed. The protein was purified by the following method. The cell paste was resuspended in extraction buffer (0.1 M phosphate, pH 8.0, with 0.01 M Tris-HCL and 5 mM TCEP and then lysed on a French Press at 1000 psi. The lysate was centrifuged at 10,000 g for 15 minutes, and the pellet was discarded. The supernatant was loaded onto a Hitrap Chelating column previously charged with 0.1 M NiSO4 and washed with 3 to 4 column volumes of extraction buffer. The column was then washed with 0.01 Tris, pH 7.5, 10% glycerol, 150 mM NaCl, 5 mM TCEP for two column volumes. The column was then further washed with two column volumes of 0.1 M phosphate, pH 6.0, 0.01 M Tris, 10% glycerol and 750 mM NaCl. Finally, the column was washed with two column volumes of the same buffer plus 50 mM imidazole. The BCAT enzyme was then eluted with the same buffer but with 350 mM imidazole. The eluant was then dialyzed overnight against 10 mM phosphate buffer pH 8.0, 10% glycerol, and 5 mM TCEP. The dialyzed protein was then loaded onto a Q-sepharose column and eluted using a salt gradient. Active fractions were collected and further purified on a Superose-12 column to yield pure BCAT protein.

[1] = target: T2, human Branched Chain Amino Acid Aminotransferase cytosolic form (hBCATc) (Homo sapiens, UniProt P54687); assay: In vitro coupled enzyme assay (glutamate dehydrogenase, NADH formation), human BCATc; format: biochemical; conditions: recombinant human BCATc, 37° C., 25 mM phosphate buffer pH 7.8; several values in a cell = repeat determinations; read-out: RhBCATc
T2 construct: made in house; host or cells: E. coli BL21(DE3)
T2 sequence (P54687 1-386): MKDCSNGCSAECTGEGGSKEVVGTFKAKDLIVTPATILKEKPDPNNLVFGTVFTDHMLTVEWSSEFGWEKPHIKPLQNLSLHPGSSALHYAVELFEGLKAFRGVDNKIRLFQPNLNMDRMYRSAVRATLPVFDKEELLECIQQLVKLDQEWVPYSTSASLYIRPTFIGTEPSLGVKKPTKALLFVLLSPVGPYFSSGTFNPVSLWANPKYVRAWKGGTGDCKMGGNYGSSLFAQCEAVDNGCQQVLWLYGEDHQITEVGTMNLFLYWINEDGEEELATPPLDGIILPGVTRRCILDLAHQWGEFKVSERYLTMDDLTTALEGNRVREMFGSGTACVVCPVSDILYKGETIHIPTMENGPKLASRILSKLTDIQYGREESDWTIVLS
Procedure: as §1, §2, §3

Structure (SMILES) | pIC50 (rat BCAT cytosolic form) | pIC50 [1]
O=C(NNS(=O)(=O)c1cccc(Cl)c1Cl)c1ccc2oc3ccccc3c2c1 [Example 110, 2-Dibenzofurancarboxylic acid, 2-[(2,3-dichlorophenyl)sulfonyl]hydrazide] | 6.14 | 4.95
COc1cccc2cc(C(=O)NNS(=O)(=O)c3cccc(F)c3)oc12 [Example 103, 2-Benzofurancarboxylic acid, 7-methoxy-, 2-[(3-fluorophenyl)sulfonyl]hydrazide] | 6.07 | 4.92
Cc1c(C(=O)NNS(=O)(=O)c2ccccc2)oc2ccc(Cl)cc12 [Example 90, 2-Benzofurancarboxylic acid, 5-chloro-3-methyl, 2-(phenylsulfonyl)hydrazide] | < 4.00 | < 4.00
O=C(NNS(=O)(=O)c1ccccc1C(F)(F)F)c1ccc2ccccc2c1 [Example 113] | 6.28 | 5.39
O=C(NNS(=O)(=O)c1cccc(Br)c1)c1ccc2oc3ccccc3c2c1 [Example 95, 2-Dibenzofurancarboxylic acid, 2-[(3-bromophenyl)sulfonyl]hydrazide] | 6.52 | 5.54
O=C(NNS(=O)(=O)c1c(F)cccc1F)c1ccc2oc3ccccc3c2c1 [Example 93, 2-Dibenzofurancarboxylic acid, 2-(2,6-difluorophenylsulfonyl)hydrazide] | 5.23 | 4.20
O=C(NNS(=O)(=O)c1ccccc1Br)c1cc2cc(Cl)cc(Cl)c2o1 [Example 73, 2-Benzofurancarboxylic acid, 5,7-dichloro 2-[(2-bromophenyl)sulfonyl]-hydrazide] | 5.72 | 4.84
O=C(O)c1ccc(S(=O)(=O)NNC(=O)c2ccc3oc4ccccc4c3c2)cc1 [Example 101, 2-Dibenzofurancarboxylic acid, 2-[(4-carboxyphenyl)sulfonyl]hydrazide] | 4.66 | 4.32
COc1c(C(=O)NNS(=O)(=O)c2ccccc2)oc2cc3ccccc3cc12 [Example 68, Naptho[2,3-b]furan-2-carboxylic acid, 3-methoxy-, 2-(phenylsulfonyl)hydrazide] | 6.51 | 5.56
COc1c(C(=O)NNS(=O)(=O)c2ccccc2)oc2ccc(-c3ccccc3)cc12 [Example 65, 2-Benzofurancarboxylic acid, 3-methoxy-5-phenyl-, 2-(phenylsulfonyl)hydrazide] | 7.00 | 5.49
O=C(NNS(=O)(=O)c1ccccc1)c1cnc2ccccc2c1 [Example 154, Quinoline-3-carboxylic acid 2-(phenylsulfonyl)hydrazide] | 5.44 | 4.62
O=C(NNS(=O)(=O)c1ccccc1Br)c1ccc2oc3ccccc3c2c1 [Example 94, 2-Dibenzofurancarboxylic acid, 2-[(2-bromophenyl)sulfonyl]hydrazide] | 6.14 | 5.26
COc1c(C(=O)NNS(=O)(=O)c2ccccc2)oc2c(-c3ccccc3)cccc12 [Example 67, 2-Benzofurancarboxylic acid, 3-methoxy-7-phenyl-, 2-(phenylsulfonyl)hydrazide] | 5.62 | 4.76
COc1cccc(S(=O)(=O)NNC(=O)c2ccc3ccccc3c2)c1 [Example 116, 2-Naphthalenecarboxylic acid, 2-[(3-methoxyphenyl)sulfonyl]hydrazide] | 5.92 | 5.09
O=C(NNS(=O)(=O)c1ccc(F)c(Cl)c1)c1ccc2ccccc2c1 [Example 115, 2-Naphthalenecarboxylic acid, 2-[(3-chloro-4-fluorophenyl)sulfonyl]hydrazide] | 5.28 | 4.22
COc1ccc(Cl)cc1S(=O)(=O)NNC(=O)c1cc2cccc(OC)c2o1 [Example 106, 2-Benzofurancarboxylic acid, 7-methoxy-, 2-[(5-chloro-2-methoxyphenyl)-sulfonyl]hydrazide] | 5.25 | 4.38
Cc1ccc2oc(C(=O)NNS(=O)(=O)c3ccccc3OC(F)(F)F)cc2c1 [Example 85, 2-Benzofurancarboxylic acid, 5-methyl-, 2-[[2-(trifluoromethoxy)phenyl]-sulfonyl]hydrazide] | 5.86 | 4.67
CCc1ccc(S(=O)(=O)NNC(=O)c2cc3cccc(OC)c3o2)cc1 [Example 108, 2-Benzofurancarboxylic acid, 7-methoxy-, 2-[(4-ethylphenyl)sulfonyl]hydrazide] | 5.25 | 4.24
COc1ccc2oc(C(=O)NNS(=O)(=O)c3ccccc3)c(OC(C)C)c2c1 [Example 57, 2-Benzofurancarboxylic acid, 5-methoxy-3-(1-methylethoxy), 2-(phenylsulfonyl)-hydrazide] | 6.85 | 5.94
O=C(NNS(=O)(=O)c1ccc(C(F)(F)F)cc1)c1ccc2ccccc2c1 [Example 114] | 4.58 | 4.22
COc1ccc2cc(C(=O)NNS(=O)(=O)c3ccccc3)oc2c1 [Example 56, 2-Benzofurancarboxylic acid, 6-methoxy-, 2-(phenylsulfonyl)hydrazide] | > 6.30 | 5.14
Cc1ccc2oc(C(=O)NNS(=O)(=O)c3cccc(Cl)c3C)cc2c1 [Example 82, 2-Benzofurancarboxylic acid, 5-methyl-, 2-[(3-chloro-2-methylphenyl)sulfonyl]-hydrazide] | 6.29 | 5.48
O=C(NNS(=O)(=O)c1ccccc1)c1ccc2ncccc2c1 [Example 13, Quinoline-6-carboxylic acid 2-(phenylsulfonyl)hydrazide] | 6.41 | 4.80
Cc1ccc2oc(C(=O)NNS(=O)(=O)c3cccc(Cl)c3)cc2c1 [Example 84, 2-Benzofurancarboxylic acid, 5-methyl-, 2-[(3-chlorophenyl)sulfonyl]hydrazide] | 6.01 | 5.21
Cc1cccc(S(=O)(=O)NNC(=O)c2cc3cc(C)ccc3o2)c1 [Example 80, 2-Benzofurancarboxylic acid, 5-methyl-, 2-([3-methylphenyl)sulfonyl]hydrazide] | 6.60 | 5.58
O=C(NNS(=O)(=O)c1ccc(Br)cc1OC(F)(F)F)c1ccc2oc3ccccc3c2c1 [Example 99, 2-Dibenzofurancarboxylic acid, 2-[(4-bromo-2-trifluoromethoxyphenyl)sulfonyl]-hydrazide] | 4.45 | 4.33
Cc1ccc2oc(C(=O)NNS(=O)(=O)c3ccccc3)c(C)c2c1 [Example 89, 2-Benzofurancarboxylic acid, 3,5-dimethyl-, 2-(phenylsulfonyl)hydrazide] | < 4.00 | < 4.00
O=C(NNS(=O)(=O)c1ccccc1)c1ccc2c(c1)CCO2 [Example 9, 2,3-Dihydro-benzofuran-5-carboxylic acid 2-(phenylsulfonyl)hydrazide] | 5.66 and 5.48 | 4.75 and 4.54
